Measured values as given in ChEMBL document CHEMBL1201862, “PubChem BioAssay data set” (2004).
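Briefly, cells in 96-well plates were exposed to five compound concentrations for 48 h, and endpoints were estimated by linear interpolation. GI50: concentration for 50% inhibition of growth.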 The source made the active and inactive calls. No stated cut-off is given here; in the data, active = GI50 up to about 1.1 µM and inactive = higher.

What was measured:
Test in all cases: NCI anticancer screen, dose series, 48 h
[1] = system: 786-0
[2] = system: A498
[3] = system: A549
[4] = system: ACHN
[5] = system: BT-549
[6] = system: CAKI-1
[7] = system: CCRF-CEM
[8] = system: COLO 205
[9] = system: DU-145
[10] = system: EKVX
[11] = system: HCC 2998
[12] = system: HCT-116
[13] = system: HCT-15
[14] = system: HL-60
[15] = system: HOP-62
[16] = system: HOP-92
[17] = system: HT-29
[18] = system: Hs-578T
[19] = system: IGROV-1
[20] = system: K562
[21] = system: KM12
[22] = system: LOX IMVI
[23] = system: M14
[24] = system: MCF7
[25] = system: MDA-MB-231
[26] = system: MDA-MB-435
[27] = system: MDA-N
[28] = system: MOLT-4
[29] = system: Malme-3M
[30] = system: NCI-H226
[31] = system: NCI-H23
[32] = system: NCI-H460
[33] = system: NCI-H522
[34] = system: NCI/ADR-RES
[35] = system: OVCAR-3
[36] = system: OVCAR-4
[37] = system: OVCAR-5
[38] = system: OVCAR-8
[39] = system: PC-3
[40] = system: RPMI-8226
[41] = system: RXF 393
[42] = system: SF-268
[43] = system: SF-295
[44] = system: SK-MEL-28
[45] = system: SK-MEL-2
[46] = system: SK-MEL-5
[47] = system: SK-OV-3
[48] = system: SN12C
[49] = system: SNB-19
[50] = system: SNB-75
[51] = system: SW-620
[52] = system: T47D
[53] = system: TK-10
[54] = system: U-251
[55] = system: UACC-257
[56] = system: UACC-62
[57] = system: UO-31

Compound: C[C@H](C1CC(C)(O)C(C)(O)C(O)O1)[C@H]1CC[C@H]2[C@@H]3[C@@H]4O[C@@H]4[C@@]4(O)CC=CC(=O)[C@]4(C)[C@H]3CC[C@]12C (some centres not stated)
- GI50 [1]: 15.5 µM (inactive)
- GI50 [2]: 22.4 µM (inactive)
- GI50 [3]: > 50 µM (inactive)
- GI50 [4]: 45.4 µM (inactive)
- GI50 [5]: > 50 µM (inactive)
- GI50 [6]: > 50 µM (inactive)
- GI50 [7]: > 50 µM (inactive)
- GI50 [8]: > 50 µM (inactive)
- GI50 [9]: > 50 µM (inactive)
- GI50 [10]: > 50 µM (inactive)
- GI50 [11]: > 50 µM (inactive)
- GI50 [12]: 36.9 µM (inactive)
- GI50 [13]: > 50 µM
- GI50 [14]: > 50 µM (inactive)
- GI50 [15]: 27.8 µM (inactive)
- GI50 [16]: 33.6 µM (inactive)
- GI50 [17]: > 50 µM (inactive)
- GI50 [18]: 39 nM (active)
- GI50 [19]: > 50 µM (inactive)
- GI50 [20]: > 50 µM (inactive)
- GI50 [21]: > 50 µM (inactive)
- GI50 [22]: > 50 µM (inactive)
- GI50 [23]: > 50 µM (inactive)
- GI50 [24]: > 50 µM (inactive)
- GI50 [25]: 44 µM (inactive)
- GI50 [26]: > 50 µM (inactive)
- GI50 [27]: > 50 µM (inactive)
- GI50 [28]: > 50 µM (inactive)
- GI50 [29]: 2.67 µM (inactive)
- GI50 [30]: 22.9 µM (inactive)
- GI50 [31]: > 50 µM (inactive)
- GI50 [32]: > 50 µM (inactive)
- GI50 [33]: 18.2 µM (inactive)
- GI50 [34]: > 50 µM (inactive)
- GI50 [35]: > 50 µM (inactive)
- GI50 [36]: > 50 µM (inactive)
- GI50 [37]: > 50 µM (inactive)
- GI50 [38]: 30.4 µM (inactive)
- GI50 [39]: > 50 µM (inactive)
- GI50 [40]: > 50 µM (inactive)
- GI50 [41]: 22.1 µM (inactive)
- GI50 [42]: 5.31 µM (inactive)
- GI50 [43]: > 50 µM (inactive)
- GI50 [44]: > 50 µM (inactive)
- GI50 [45]: > 50 µM (inactive)
- GI50 [46]: > 50 µM (inactive)
- GI50 [47]: 14.8 µM (inactive)
- GI50 [48]: > 50 µM (inactive)
- GI50 [49]: > 50 µM (inactive)
- GI50 [50]: 20.9 µM (inactive)
- GI50 [51]: > 50 µM (inactive)
- GI50 [52]: > 50 µM (inactive)
- GI50 [53]: > 50 µM (inactive)
- GI50 [54]: > 50 µM (inactive)
- GI50 [55]: > 50 µM (inactive)
- GI50 [56]: > 50 µM (inactive)
- GI50 [57]: 7.55 µM (inactive)
